Article PMC10746708, “A small molecule iCDM-34 identified by in silico screening suppresses HBV DNA through activation of aryl hydrocarbon receptor” (Cell Death Discovery, 2023)

Experiments:
HBV genotype C [1] = assay: HBsAg and HBeAg in culture medium by ELISA; format: cell-based; settings: 30 µM, 7 days
Method: PXB cells were plated on 96-well plate and infected with three genome equivalents per cell of HBV C_AT [33], and the medium was changed every 3 or 4 days. […] After treatment with these compounds, cellular DNA, medium DNA, and total RNA were automatically purified as per our previously established protocol. RNA purification of total RNA from cultured cells in the 24-well plate was performed using the RNeasy Mini Kit (Qiagen, Germantown, MD, USA) according to the manufacturer’s instructions.
HBsAg and HBeAg levels in the cell culture medium were measured using Enzygnost HBsAg 6.0 and Enzygnost HBe monoclonal (Siemens, Munich, Germany), respectively, according to the manufacturer’s instructions.

[2] = Liver microsomal stability, human; format: in vitro ADME; settings: human liver microsomes
Method: Liver microsome stability studies (human, mouse, and rat) were performed at Sumika Chemical Analysis Service (Osaka, Japan) by following an established procedure. A mixture of 1 μM of substrate, 0.5 mg protein/mL of microsomes, and […] β-NADPH was incubated for 30 or 60 min and % remaining substrate was quantitatively measured by LC-MS/MS.

[3] = target: interaction between HBx and DNA binding protein 1 (UniProt P03165+Q16531); assay: HBx - DNA binding protein 1 interaction; settings: data not shown
Sequence of interaction between HBx and DNA binding protein 1 (Q16531 whole entry): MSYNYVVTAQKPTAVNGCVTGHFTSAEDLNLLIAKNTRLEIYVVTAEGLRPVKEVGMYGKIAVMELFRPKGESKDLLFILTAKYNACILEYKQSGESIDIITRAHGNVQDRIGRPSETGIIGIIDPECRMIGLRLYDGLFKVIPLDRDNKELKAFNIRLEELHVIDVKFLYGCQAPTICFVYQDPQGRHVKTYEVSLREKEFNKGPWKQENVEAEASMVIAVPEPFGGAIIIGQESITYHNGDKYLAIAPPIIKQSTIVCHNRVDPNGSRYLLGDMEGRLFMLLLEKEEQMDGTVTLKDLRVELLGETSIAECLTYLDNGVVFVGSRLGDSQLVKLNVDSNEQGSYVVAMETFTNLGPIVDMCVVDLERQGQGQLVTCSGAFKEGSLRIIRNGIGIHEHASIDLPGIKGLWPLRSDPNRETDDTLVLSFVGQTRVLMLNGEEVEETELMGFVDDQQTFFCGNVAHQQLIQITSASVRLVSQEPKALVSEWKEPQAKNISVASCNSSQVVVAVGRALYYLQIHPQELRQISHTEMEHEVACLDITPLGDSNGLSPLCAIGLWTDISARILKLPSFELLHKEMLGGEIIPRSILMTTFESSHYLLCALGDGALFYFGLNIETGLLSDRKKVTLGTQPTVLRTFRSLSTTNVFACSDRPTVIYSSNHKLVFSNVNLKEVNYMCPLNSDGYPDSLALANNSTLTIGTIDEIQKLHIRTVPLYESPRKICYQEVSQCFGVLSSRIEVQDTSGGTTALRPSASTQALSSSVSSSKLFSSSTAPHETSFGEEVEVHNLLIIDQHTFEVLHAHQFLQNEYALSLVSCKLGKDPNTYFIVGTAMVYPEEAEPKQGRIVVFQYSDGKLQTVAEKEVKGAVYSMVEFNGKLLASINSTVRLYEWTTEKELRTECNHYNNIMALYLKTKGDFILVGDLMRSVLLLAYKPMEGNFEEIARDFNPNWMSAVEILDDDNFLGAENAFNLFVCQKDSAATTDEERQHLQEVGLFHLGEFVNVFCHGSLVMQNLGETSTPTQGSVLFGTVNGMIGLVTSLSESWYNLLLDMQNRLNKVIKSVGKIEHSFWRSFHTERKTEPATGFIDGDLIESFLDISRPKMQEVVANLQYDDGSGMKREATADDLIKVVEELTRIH
Sequence of interaction between HBx and DNA binding protein 1 (P03165 whole entry): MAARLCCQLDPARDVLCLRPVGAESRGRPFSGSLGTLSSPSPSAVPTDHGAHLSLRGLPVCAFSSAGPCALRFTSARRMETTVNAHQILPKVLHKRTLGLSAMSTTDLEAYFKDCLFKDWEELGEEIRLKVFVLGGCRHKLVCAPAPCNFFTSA

[4] = Metabolic analysis in vivo: blood concentration after injection; settings: PXB-mice (cDNA-uPA^wild/+/SCID), other: injection, human hepatocyte-chimeric mouse, blood at 5-480 min, n = 1, read-out: t1/2 in blood
HCV replicon cells [5] = assay: AhR knockdown in HCV replicon cells, luciferase assay; format: cell-based; settings: 30 μM, 2 days
Method: For knockdown of AhR in the HCV replicon cells, 2 ×10^4 cells of HCV replicon cells were mixed with AhR siRNA (siGENOME Human AHR siRNA – Smart pool, Horizon Discovery, Cambridgeshire, United Kingdom) and X-tremeGene 360 transfection reagent (Roche) and plated on 96 well plates. After 2 days of knockdown, the cells were treated with 30 μM iCDM-17, iCDM-34, and CDM-3008 for 2 days. The quantity of HCV replicons and cell viability were measured. The cellular RNA was purified using Agencourt RNAdvance (Beckman Coulter, San Jose, CA) and reverse-transcribed using PrimeScript RT master mix (Takara Bio, Kusatsu, Japan) to measure amount of AhR and β-actin mRNAs by quantitative PCR.

[6] = system: promoter of hypoxia inducible factor (HIF); design: method as in PMID 34492592; settings: cited from earlier work
HBV-infected PXB cells [7] = assay: pgRNA and OAS1 mRNA by qPCR in HBV-infected PXB cells; format: cell-based, human; settings: 7 days
Method: mRNA expression levels were measured by qPCR using specific primers or sets of specific primers and probe. RNA was reverse transcribed using PrimeScript RT Master Mix (Takara Bio, Shiga, Japan) to synthesize complementary DNA (cDNA). OAS1,glyceraldehyde 3-phosphate dehydrogenase (GAPDH), β-actin mRNA expression levels were measured using specific primers and TB Green Premix Ex Taq II (Takara Bio). AhR (Hs00169233_m), CDK1 (Hs00938777_m), CDK2 (Hs01548894_m) mRNA expression levels were measured using specific probe and primer sets (Thermo Fisher Scientific, Waltham, MA, USA) and Probe qPCR mix (Takara Bio) in a CFX96 Touch Real-Time PCR Detection System (Bio-Rad Laboratories, Hercules, CA, USA). The specific primers used in this study were OAS1 (forward primer: 5′-[…]-3′, reverse primer: 5′-[…]-3′), reverse primer: 5′-[…]-3′, and GAPDH (forward primer: 5′-[…]-3′, reverse primer: 5′-[…]-3′). β-actin (forward primer: forward primer: 5′-[…]-3′ and reverse primer: 5′-[…]-3′). Expression levels were determined using the 2^–ΔΔCt method and were normalized to endogenous β-actin mRNA expression levels.
PXB cells were plated on 96-well plate and infected with three genome equivalents per cell of HBV C_AT [33], and the medium was changed every 3 or 4 days. […]

HCV replicon cells [8] = assay: HCV replicon luciferase assay; format: cell-based; settings: 0.05–30 µM, 3 days
Method: HCV replicon cells were plated on clear and white 96-well plates (TPP, 92096 and Greiner Bio-one, 655083) in DMEM, high glucose, GlutaMAX Supplement (Thermo Fisher Scientific, Waltham, MA, USA) containing 10 % fetal bovine serum, penicillin, and streptomycin. After 1 day, the cells were treated with 0.05–30 µM of iCDM-17 and iCDM-34 for 3 days. The quantity of HCV replicons was measured by a luciferase assay using Steady-Glo Luciferase Assay System (Promega, Madison, WI, USA). The cell viability was measured by XTT assay using Cell proliferation kit II (Roche, Mannheim, Germany) according to the established protocol.

HBV-infected PXB cells [9] = assay: Microarray gene expression analysis of HBV-infected PXB cells; format: cell-based, human
Method: PXB cells cultured in 24-well plates were infected with three genome equivalents per cell of HBV C_AT. After 24 days of infection, the cells were treated with 0.3 and 30 µM iCDM-34 and 1,000 IU/mL IFN-α (Sumitomo Dainippon Pharma, Osaka, Japan) for 7 days (n = 3). Total RNA was extracted from the treated cells and subjected to microarray analysis. The raw and normalized data were uploaded to NCBI Gene Expression Omnibus (GSE180646).
To explore the biological interpretation of the transcriptome data, the canonical pathways and upstream causal networks were identified using knowledge-based functional analysis software from Ingenuity Pathways Analysis (IPA; Ingenuity Systems, Redwood City, CA, USA). […] A statistical measure of the IPA analysis is the activation z-score, which can be used to identify likely regulating molecules based on a statistically significant pattern match of up- and downregulation, and to predict the activation state (either activated or inhibited) of a putative regulator [37]. An absolute value of z-score more than 2 was considered significant.

HBV genotype C [10] = assay: Anti-HBV activity in human hepatocyte-chimeric mice (liver HBV DNA); format: in vivo, human hepatocyte-chimeric mice (PXB-mice); settings: 21 days
Method: PXB-mice (human liver chimeric cDNA-uPA^wild/+/SCID male mice) were generated by PhoenixBio. HBV genotype C was then inoculated into the mice via i.v.. After attaining 1.2 × 10^8–3.5 × 10^8 copies/mL of the serum HBV DNA levels, vehicle (10% 2-hydroxypropyl-beta-cyclodextrin and 10% polyethylene glycol 300) or 1 mg/kg iCDM-34 was i.v. injected with or without administration of 0.03 mg/kg ETV orally once a day for 21 days (n = 4). DNA was purified from the liver and its concentration was measured using NanoDrop Spectrophotometer (Thermo Fisher Scientific), followed by measurement of HBV DNA levels by qPCR according to a previously established method. The experimental procedures using the PXB-mice was approved by the Animal Ethics Committee of PhoenixBio.

For `O=C(Nc1ccc(Br)cc1)c1ccn(Cn2cc([N+](=O)[O-])cn2)n1` [iCDM-34], the HBeAg in medium (HBV genotype C [1]) was “inhibited”, the HBsAg in medium (HBV genotype C [1]) was “inhibited” and the half-life at 1 μM [2] was 8.43 h. The remaining at 0.5 h, 1 μM ([2]; 1 μM substrate, 0.5 mg protein/mL, 30 min) was 96.2 ± 3.2%, the remaining at 1 h, 1 μM ([2]; 1 μM substrate, 0.5 mg protein/mL, 60 min) was 94.1 ± 3.3% and the “inhibition of interaction between HBx and DNA binding protein 1” value [3] was “did not inhibit”. For the same compound, the half-life [4] was 0.383 h, the “anti-HCV activity (HCV replicon RNA) with AhR siRNA” value (HCV replicon cells [5]; AhR siRNA) was “not present” and the “anti-HCV activity (HCV replicon RNA) with control siRNA” value (HCV replicon cells [5]; control siRNA) was “significant anti-HCV activity”. The “suppression of HIF promoter” value [6] was “suppress”, the pgRNA expression level (HBV-infected PXB cells [7]; 30 µM) was “significantly decreased” and the “expression of OAS1 (ISG)” value (HBV-infected PXB cells [7]; 0.0003–30 μM) was “no increase”. The “HCV replication (replicon luciferase)” value (HCV replicon cells [8]) was “suppressed”, the “expression of ADH1B, G6PC, ADH1A, TAT, SLC38A3, and SLC22A7” value (HBV-infected PXB cells [9]) was “suppressed” and the “expression of CYP1A1, CYP1A2, CYP4A11, CYP1B1, AKR1B15, and AKR1B10” value (HBV-infected PXB cells [9]) was “upregulated”. The “HBV DNA in the liver, single agent” value (HBV genotype C [10]; 1 mg/kg i.v. once a day, alone) was “did not reduce” and the “HBV DNA in the liver, combination with ETV compared with ETV alone” value (HBV genotype C [10]; 1 mg/kg i.v. plus ETV 0.03 mg/kg p.o. once a day) was “drastically suppressed”.
